# Paper PMC5882164, “A novel calcimimetic agent, evocalcet (MT-4580/KHK7580), suppresses the parathyroid cell function with little effect on the gastrointestinal tract or CYP isozymes in vivo and in vitro” (PLoS ONE, 2018)
# Values joined by “and” are separate entries in the source; they are usually repeats but may differ in a detail not shown here. Equal values may be shown once.
# Legend:
# serum calcium = assay: Normal rat study: serum calcium level after oral administration; assay type: in vivo; set-up: Serum Ca: unit not given here; conditions: normal rats
# Method: (§1) After acclimatization, rats were divided into nine groups (n = 10/group) matched in terms of body weight, and their serum PTH and calcium levels. Vehicle, 0.5% (w/v) methyl cellulose (Wako Pure Chemical Industries, Ltd.) solution orally administered to vehicle treatment group rats. Evocalcet (0.03, 0.1, 0.3, or 1 mg/kg), or cinacalcet (1, 3, 10, or 30 mg/kg) were suspended in the vehicle solution and orally administered to each drug treatment group. Blood samples were collected from the tail vein before and at 0.5, 2, 4, 6, 8, and 24 h after the oral administration.
# (§2) The serum PTH level was measured using a Rat Intact PTH ELISA kit (Immutopics, Inc., San Clemente, CA). The serum calcium, phosphate and BUN levels were measured using an auto analyzer (Hitachi High-Technologies Corporation., Tokyo, Japan) or the following test kits: the Calcium E-test WAKO, the Phospha C-test WAKO, or the Blood Urea nitrogen B-test WAKO (Wako Pure Chemical Industries, Ltd., Osaka, Japan).
# serum PTH [1] = assay: Normal rat study: serum PTH level after oral administration; assay type: in vivo; conditions: normal rats
# Method: as §1, §2
# gastric emptying = assay: Evaluation of gastric emptying in rats (phenol red); assay type: in vivo, rat
# Method: The study of gastric emptying in rats was performed by referencing a previously reported method. […] The rats were divided into eight body-weight-matched groups (n = 8/group). […] Ten minutes later, 0.05 w/v% phenol red, a non-absorbable marker solution (1.5 mL/body), was orally administered. Thirty minutes after the administration of phenol red, the rats were euthanized by cervical dislocation, and the gastric body clamped at the cardiac and pyloric part of the stomach was obtained. The stomach was homogenized by adding 0.1 M NaOH and centrifugated. The supernatant was mixed with 20 w/v% trichloroacetic acid. After centrifugation, the supernatant was mixed with the same volume of 0.5 mol/L NaOH, and the absorbance was measured at 560 nm. The gastric emptying rate was calculated by the following formula: […]=[1-(opticaldensity[[…])]×100
# serum PTH [2] = assay: Serum PTH reduction in common marmosets; assay type: in vivo, common marmoset; set-up: Serum PTH levels: unit not given here
# Method: The study of effect of evocalcet on emesis in common marmoset was performed by referencing a previously reported method. The marmosets (n = 24) used for this study were housed in cages (460 × 600 × 655 mm) with environmental enrichments (wooden perches, swing, and balls) and acclimated for at least 4 weeks. The marmosets were fasted from evening on the day before administration. […] The serum PTH level was measured using a Porcine Intact PTH ELISA kit (Immutopics, Inc., San Clemente, CA, USA). To evaluate the emetic effects in marmosets, evocalcet (50 or 150 μg/kg) or cinacalcet (1500 or 5000 μg/kg) was orally administered (n = 6/drug, dose down titration, n = 12 in total). The observation of emesis was conducted until 4 h after the administration.
# [3] = evocalcet 0.03 mg/kg oral, 0 h (before administration), group mean, n = 10
# [4] = evocalcet 0.03 mg/kg oral, 0 h (before administration), individual rats
# [5] = evocalcet 0.03 mg/kg oral, 0.5 h, group mean, n = 10
# [6] = evocalcet 0.03 mg/kg oral, 0.5 h, individual rats
# [7] = evocalcet 0.03 mg/kg oral, 2 h, group mean, n = 10
# [8] = evocalcet 0.03 mg/kg oral, 2 h, individual rats
# [9] = evocalcet 0.03 mg/kg oral, 4 h, group mean, n = 10
# [10] = evocalcet 0.03 mg/kg oral, 4 h, individual rats
# [11] = evocalcet 0.03 mg/kg oral, 6 h, group mean, n = 10
# [12] = evocalcet 0.03 mg/kg oral, 6 h, individual rats
# [13] = evocalcet 0.03 mg/kg oral, 8 h, group mean, n = 10
# [14] = evocalcet 0.03 mg/kg oral, 8 h, individual rats
# [15] = evocalcet 0.03 mg/kg oral, 24 h, group mean, n = 10
# [16] = evocalcet 0.03 mg/kg oral, 24 h, individual rats
# [17] = evocalcet 0.1 mg/kg oral, 0 h (before administration), individual rats
# [18] = evocalcet 0.1 mg/kg oral, 0.5 h, individual rats
# [19] = evocalcet 0.1 mg/kg oral, 2 h, individual rats
# [20] = evocalcet 0.1 mg/kg oral, 4 h, individual rats
# [21] = evocalcet 0.1 mg/kg oral, 6 h, individual rats
# [22] = evocalcet 0.1 mg/kg oral, 8 h, individual rats
# [23] = evocalcet 0.1 mg/kg oral, 24 h, individual rats
# [24] = single oral dose, vs vehicle group
structure (smiles),measurement,setting,value
C[C@@H](N[C@H]1CCN(c2ccc(CC(=O)O)cc2)C1)c1cccc2ccccc12 [evocalcet],Serum Ca,serum calcium; [3],10.9
same,Serum Ca,serum calcium; [4],10.2 and 11.0 and 11.2 and 10.8
same,Serum Ca,serum calcium; [5],11.0
same,Serum Ca,serum calcium; [6],10.2 and 10.6 and 11.8 and 10.4 and 11.2 and 11.4
same,Serum Ca,serum calcium; [7],10.8
same,Serum Ca,serum calcium; [8],10.0 and 11.2 and 10.6 and 10.8 and 11.0 and 10.4
same,Serum Ca,serum calcium; [9],10.4
same,Serum Ca,serum calcium; [10],10.2 and 10.8 and 10.0 and 10.6 and 10.4
same,Serum Ca,serum calcium; [11],10.3
same,Serum Ca,serum calcium; [12],10.0 and 10.4 and 10.2 and 10.6
same,Serum Ca,serum calcium; [13],10.5
same,Serum Ca,serum calcium; [14],9.6 and 10.0 and 8.6 and 10.6 and 11.4 and 10.8 and 12.6
same,Serum Ca,serum calcium; [15],10.5
same,Serum Ca,serum calcium; [16],10.2 and 10.4 and 10.6 and 10.8
same,Serum Ca,"serum calcium; evocalcet 0.1 mg/kg oral, 0 h (before administration), group mean, n = 10",10.9
same,Serum Ca,serum calcium; [17],11.0 and 10.8
same,Serum Ca,"serum calcium; evocalcet 0.1 mg/kg oral, 0.5 h, group mean, n = 10",10.7
same,Serum Ca,serum calcium; [18],10.6 and 10.0
same,Serum Ca,"serum calcium; evocalcet 0.1 mg/kg oral, 2 h, group mean, n = 10",10.1
same,Serum Ca,serum calcium; [19],10.2 and 10.0 and 9.8
same,Serum Ca,"serum calcium; evocalcet 0.1 mg/kg oral, 4 h, group mean, n = 10",9.8
same,Serum Ca,serum calcium; [20],9.8 and 10.0 and 10.2 and 9.6
same,Serum Ca,"serum calcium; evocalcet 0.1 mg/kg oral, 6 h, group mean, n = 10",9.9
same,Serum Ca,serum calcium; [21],10.0 and 10.4 and 9.8
same,Serum Ca,"serum calcium; evocalcet 0.1 mg/kg oral, 8 h, group mean, n = 10",10.6
same,Serum Ca,serum calcium; [22],10.4 and 10.8 and 10.6
same,Serum Ca,"serum calcium; evocalcet 0.1 mg/kg oral, 24 h, group mean, n = 10",11.6
same,Serum Ca,serum calcium; [23],12.6 and 10.8 and 12.0
same,Serum Ca,"serum calcium; evocalcet 0.3 mg/kg oral, 0 h (before administration), individual rats",10.4 and 10.8 and 11.2
same,Serum Ca,"serum calcium; evocalcet 0.3 mg/kg oral, 0.5 h, individual rats",9.6 and 9.4 and 10.4 and 10.0
same,Serum Ca,"serum calcium; evocalcet 0.3 mg/kg oral, 2 h, individual rats",9.0 and 9.2 and 9.4 and 9.8
same,Serum Ca,"serum calcium; evocalcet 0.3 mg/kg oral, 4 h, individual rats",8.8 and 9.6 and 9.4 and 9.8 and 9.2 and 9.0
same,Serum Ca,"serum calcium; evocalcet 0.3 mg/kg oral, 6 h, individual rats",8.6 and 9.8 and 9.6 and 9.4 and 9.0
same,Serum Ca,"serum calcium; evocalcet 0.3 mg/kg oral, 8 h, individual rats",9.8 and 10.4 and 9.4 and 8.8
same,Serum Ca,"serum calcium; evocalcet 0.3 mg/kg oral, 24 h, individual rats",14.8 and 11.4 and 11.0 and 11.2
same,Doses that significantly reduced the serum calcium level,serum calcium; [24],≥ 0.1 mg/kg
same,Serum PTH,serum PTH [1]; [3],117.288
same,Serum PTH,serum PTH [1]; [4],129.159 and 98.086 and 98.874 and 128.658 and 81.261 and 126.366 and 104.386 and 122.715 and 112.906 and 170.470
same,Serum PTH,serum PTH [1]; [5],51.998
same,Serum PTH,serum PTH [1]; [6],33.535 and 36.787 and 59.553 and 50.196 and 64.403 and 70.451 and 74.902 and 34.333 and 15.500 and 80.322
same,Serum PTH,serum PTH [1]; [7],103.394
same,Serum PTH,serum PTH [1]; [8],15.500 and 69.801 and 132.927 and 117.200 and 119.941 and 109.480 and 83.508 and 88.630 and 158.250 and 138.699
same,Serum PTH,serum PTH [1]; [9],147.651
same,Serum PTH,serum PTH [1]; [10],111.671 and 66.789 and 176.435 and 179.922 and 200.545 and 117.161 and 137.784 and 93.718 and 165.530 and 226.956
same,Serum PTH,serum PTH [1]; [11],186.457
same,Serum PTH,serum PTH [1]; [12],167.854 and 143.511 and 260.179 and 212.225 and 211.330 and 175.263 and 176.565 and 131.380 and 164.597 and 221.669
same,Serum PTH,serum PTH [1]; [13],183.556
same,Serum PTH,serum PTH [1]; [14],144.862 and 141.432 and 139.974 and 226.246 and 213.297 and 177.022 and 177.107 and 148.207 and 214.155 and 253.260
same,Serum PTH,serum PTH [1]; [15],111.913
same,Serum PTH,serum PTH [1]; [16],85.800 and 128.079 and 93.520 and 115.512 and 45.316 and 85.890 and 75.657 and 215.959 and 131.939 and 141.454
same,Serum PTH,serum PTH [1]; [17],112.047 and 96.726 and 90.998 and 167.821
same,Serum PTH,serum PTH [1]; [18],33.820 and 15.500
same,Serum PTH,serum PTH [1]; [19],42.097 and 52.053 and 15.500
same,Serum PTH,serum PTH [1]; [20],266.348 and 163.156 and 79.252 and 192.014
same,Serum PTH,serum PTH [1]; [21],153.036 and 149.943 and 133.171 and 173.553
same,Serum PTH,serum PTH [1]; [22],303.000 and 168.617 and 221.701
same,Serum PTH,serum PTH [1]; [23],120.270 and 80.325 and 122.155
same,Strength of pharmacological effect relative to cinacalcet at the same dosage,serum PTH [1]; oral,approximately 30 times
same,Doses that significantly reduced the serum PTH level,serum PTH [1]; [24],≥ 0.03 mg/kg
same,Gastric Emptying,"gastric emptying; 0.3 mg/kg, group mean",67.83%
same,Gastric Emptying,"gastric emptying; 0.3 mg/kg, individual rats",75.29% and 74.04% and 68.43% and 31.88% and 68.64% and 79.44% and 65.73% and 79.23%
same,Gastric Emptying,"gastric emptying; 1 mg/kg, group mean",65.89%
same,Gastric Emptying,"gastric emptying; 1 mg/kg, individual rats",38.94% and 71.96% and 52.65% and 74.45% and 73.42% and 65.94% and 77.15% and 72.59%
same,Gastric Emptying,"gastric emptying; 3 mg/kg, group mean",61.58%
same,Gastric Emptying,"gastric emptying; 3 mg/kg, individual rats",69.47% and 67.19% and 53.48% and 63.03% and 78.82% and 61.16% and 64.49% and 34.99%
same,Dose (3 mg/kg) without delay of gastric emptying relative to the dose required for a significant PTH reduction,gastric emptying; oral,100 fold
same,Effect on gastric emptying,"gastric emptying; oral 0.3, 1 and 3 mg/kg (any dose)",no significant effects
same,Serum PTH levels,"serum PTH [2]; 5 μg/kg, 1 h, individual animals",19.1 and 25.6 and 158.9
same,Serum PTH levels,"serum PTH [2]; 5 μg/kg, 1 h, mean",67.9
same,Serum PTH levels,"serum PTH [2]; 5 μg/kg, 4 h, individual animals",52.9 and 115.9 and 433.3
same,Serum PTH levels,"serum PTH [2]; 5 μg/kg, 4 h, mean",200.7
same,Serum PTH levels,"serum PTH [2]; 5 μg/kg, before administration, individual animals",92.1 and 97.8 and 541.4
same,Serum PTH levels,"serum PTH [2]; 5 μg/kg, before administration, mean",243.8
same,Serum PTH levels,"serum PTH [2]; 150 μg/kg, 1 h, individual animals",36.4 and 52.9 and 258.2
same,Serum PTH levels,"serum PTH [2]; 150 μg/kg, 1 h, mean",115.9
same,Serum PTH levels,"serum PTH [2]; 150 μg/kg, 4 h, individual animals",81.0 and 188.4 and 311.9
same,Serum PTH levels,"serum PTH [2]; 150 μg/kg, 4 h, mean",193.8
same,Serum PTH levels,"serum PTH [2]; 150 μg/kg, before administration, individual animals",57.2 and 203.0 and 236.6
same,Serum PTH levels,"serum PTH [2]; 150 μg/kg, before administration, mean",165.6
same,Minimum effective dose on PTH reduction,serum PTH [2]; oral,0.005 mg/kg
